Laboratory results published in US8129396B2, “2-[1H-benzimidazol-2(3H)-ylidene]-2-(pyrimidin-2-yl)acetamides and 2-[benzothiazol-2(3H)-ylidene]-2-(pyrimidin-2-yl)acetamides as kinase inhibitors” (Telik, Inc., priority 2008, dated 2012).

How the values were obtained:
[1] = target: T1, Aurora A kinase (Homo sapiens, UniProt O14965); assay: Aurora A kinase assay (IMAP fluorescence polarization); assay type: biochemical; details: 10 μM ATP; rounded to 1 significant figure; read-out: Aur-A IC50
T1 construct: purchased Upstate Biotech
T1 sequence (O14965 1-403): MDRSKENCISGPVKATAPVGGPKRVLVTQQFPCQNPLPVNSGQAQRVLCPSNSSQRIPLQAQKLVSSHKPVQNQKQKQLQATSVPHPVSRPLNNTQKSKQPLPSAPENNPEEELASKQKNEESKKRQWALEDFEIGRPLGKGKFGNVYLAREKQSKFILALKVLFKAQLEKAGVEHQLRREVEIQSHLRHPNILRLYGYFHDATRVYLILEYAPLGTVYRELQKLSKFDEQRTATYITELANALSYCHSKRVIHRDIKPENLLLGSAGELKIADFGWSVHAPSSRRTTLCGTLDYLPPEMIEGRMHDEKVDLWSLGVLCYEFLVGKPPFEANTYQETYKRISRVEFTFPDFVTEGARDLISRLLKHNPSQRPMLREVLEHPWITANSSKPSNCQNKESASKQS
Method in brief: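 Compounds (eight 3-fold dilutions, 2.5% DMSO final) were preincubated 5 min at room temperature with Aurora A kinase in buffer with 1 mM DTT. Reaction with 100 nM fluorescein-PKAtide and 10 μM ATP ran 45 min at room temperature, then was stopped with IMAP binding reagent; fluorescence polarization was read after 30 min.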

[2] = target: T2, Aurora B kinase (Homo sapiens, UniProt Q96GD4); assay: Aurora B kinase assay (IMAP fluorescence polarization); assay type: biochemical; details: 10 μM ATP; rounded to 1 significant figure; read-out: Aur-B IC50
T2 construct: purchased BPS Bioscience
T2 sequence (Q96GD4 whole entry): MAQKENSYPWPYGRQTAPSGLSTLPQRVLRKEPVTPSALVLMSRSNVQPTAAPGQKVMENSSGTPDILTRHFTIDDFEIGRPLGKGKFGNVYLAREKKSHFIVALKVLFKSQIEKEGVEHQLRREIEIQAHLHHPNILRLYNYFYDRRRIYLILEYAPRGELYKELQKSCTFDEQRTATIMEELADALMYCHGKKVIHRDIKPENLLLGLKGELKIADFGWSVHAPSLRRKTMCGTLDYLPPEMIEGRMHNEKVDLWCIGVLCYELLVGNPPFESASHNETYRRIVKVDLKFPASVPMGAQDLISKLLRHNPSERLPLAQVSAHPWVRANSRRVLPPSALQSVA
Method in brief: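 Reaction started with 100 nM fluorescein-labelled PKAtide and 10 μM ATP, run 45 min at room temperature, then stopped with IMAP binding reagent (1:400). After 30 min shaking at room temperature, fluorescence polarization read; run in duplicate with solvent control.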

[3] = system: HUVEC-2 (human umbilical vein endothelial cells); assay: HUVEC VEGF-dependent proliferation assay (BrdU); assay type: cell-based; details: VEGF (25 ng/mL)-dependent proliferation, read-out: HUVEC IC50
Method in brief: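 HUVEC-2 cells on gelatin got serially diluted compound (0.5% DMSO final), and VEGF (25 ng/mL) was added 2 hr later. BrdU (10 μM) went in after one day, with labelling for another day. VEGF-dependent proliferation was read by BrdU detection, in triplicate.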

[4] = system: HCT116 (human colon carcinoma) cells; assay: HCT116 cytotoxicity assay (CellTiter-Glo); assay type: cell-based; details: HCT-116, 72 h, cytotoxicity, three days culture, read-out: HCT116 IC50
[5] = system: p-H3 in HCT116 cells; assay: Histone phosphorylation (p-H3) assay; assay type: cell-based; details: Homo sapiens, HCT-116; HCT116 cells, 4 hr incubation; read-out: p-H3 IC50
Method in brief: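 HCT116 cells (2.5×10^4/well, attached overnight) treated 4 h with 8-point 3-fold compound dilutions at 0.5% DMSO. Lysates dot-blotted onto nitrocellulose and probed for p-H3 with β-actin on the same membrane, fluorescent secondary antibodies, Odyssey scan; duplicate wells.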

[6] = system: HCT116 (human colon carcinoma) xenograft; assay: HCT116 xenograft assay, oral administration; assay type: in vivo, athymic nu/nu mice; details: for inhibition of tumor growth compared to vehicle: 150 mg/Kg by gavage once/day on days 1-5 and 8-12, measured 9 days after last treatment
Description: Male athymic nu/nu mice, 6-8 weeks old (about 20 g), were implanted subcutaneously in the right fore flank with about 1×10^7 cells of the HCT116 (human colon carcinoma) line that had been grown in antibiotic-free medium for at least two passages. About 14-21 days after tumor transplantation, when the tumor weight was about 50-250 mg, the mice were assigned to treatment groups. […] Groups of mice were treated with compounds 39A, 40A, 60A, 75A, 95A, and 117A at 150 mg/Kg by gavage once/day on days 1-5 and 8-12 from the start of treatment, with vehicle control. Tumor growth inhibition was measured 9 days after the last day of treatment.

[7] = target: T3, VEGFR2 kinase (Homo sapiens, UniProt P35968); assay: VEGFR2 kinase assay; assay type: biochemical; details: 6 μM ATP, 1 mM MnCl2; rounded to 1 significant figure
T3 construct: purchased Cell Signaling Technology
T3 sequence (P35968 20-1356): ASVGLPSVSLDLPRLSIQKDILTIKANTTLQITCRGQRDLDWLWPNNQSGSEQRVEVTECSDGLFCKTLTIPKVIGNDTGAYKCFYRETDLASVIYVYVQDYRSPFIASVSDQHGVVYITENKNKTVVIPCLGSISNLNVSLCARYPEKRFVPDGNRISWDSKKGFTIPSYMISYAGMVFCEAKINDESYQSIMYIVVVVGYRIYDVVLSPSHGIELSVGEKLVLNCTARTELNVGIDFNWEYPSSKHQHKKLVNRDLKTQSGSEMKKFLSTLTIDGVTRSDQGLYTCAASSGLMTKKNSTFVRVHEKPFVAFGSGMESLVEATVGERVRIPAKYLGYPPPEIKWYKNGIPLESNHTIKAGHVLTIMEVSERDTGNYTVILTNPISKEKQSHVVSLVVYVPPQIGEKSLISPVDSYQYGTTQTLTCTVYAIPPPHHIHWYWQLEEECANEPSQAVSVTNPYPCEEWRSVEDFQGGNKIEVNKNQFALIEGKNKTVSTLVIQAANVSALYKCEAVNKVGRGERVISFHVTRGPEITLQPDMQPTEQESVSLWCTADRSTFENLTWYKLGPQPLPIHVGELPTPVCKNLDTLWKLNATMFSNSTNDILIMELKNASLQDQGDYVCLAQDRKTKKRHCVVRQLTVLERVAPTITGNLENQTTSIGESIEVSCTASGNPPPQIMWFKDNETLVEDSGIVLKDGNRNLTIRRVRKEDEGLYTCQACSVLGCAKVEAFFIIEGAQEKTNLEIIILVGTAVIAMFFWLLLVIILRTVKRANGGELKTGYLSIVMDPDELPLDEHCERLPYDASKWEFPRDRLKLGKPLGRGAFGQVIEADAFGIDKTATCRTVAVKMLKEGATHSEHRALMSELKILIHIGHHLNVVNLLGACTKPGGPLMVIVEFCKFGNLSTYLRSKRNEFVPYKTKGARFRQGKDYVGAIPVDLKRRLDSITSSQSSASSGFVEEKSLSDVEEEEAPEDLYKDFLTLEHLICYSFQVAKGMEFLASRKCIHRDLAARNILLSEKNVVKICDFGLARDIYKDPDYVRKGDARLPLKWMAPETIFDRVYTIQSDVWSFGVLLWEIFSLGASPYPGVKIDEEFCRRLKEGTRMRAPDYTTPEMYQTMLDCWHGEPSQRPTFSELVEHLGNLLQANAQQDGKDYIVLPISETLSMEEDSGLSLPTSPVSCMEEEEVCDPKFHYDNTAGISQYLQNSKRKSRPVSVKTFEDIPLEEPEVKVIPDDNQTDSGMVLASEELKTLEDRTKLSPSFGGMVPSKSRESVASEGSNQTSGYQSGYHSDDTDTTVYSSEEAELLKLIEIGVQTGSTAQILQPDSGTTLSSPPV
Method in brief: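 VEGFR2 phosphorylates CSKtide with 6 μM ATP and 1 mM MnCl2 for 1 hr, otherwise following the Aurora A kinase protocol. Detection by IMAP fluorescence polarization, binding reagent diluted 1:1200 in 1:1 binding buffer A/B. Run in duplicate with solvent control.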

[8] = system: HL60 (human promyelocytic leukemia) xenograft; assay: HL60 xenograft assay, oral administration; assay type: in vivo, athymic nu/nu mice; details: for inhibition of tumor growth compared to vehicle: 150 mg/Kg by gavage once/day on days 1-5 and 8-10, measured 1-2 days after last treatment
Description: Male athymic nu/nu mice, 6-8 weeks old (about 20 g), were implanted subcutaneously in the right fore flank with about 1×10^7 cells of the HL60 (human promyelocytic leukemia) line that had been grown in antibiotic-free medium for at least two passages. About 6 days after tumor implantation, when the tumor weight was about 50-250 mg, the mice were assigned to treatment groups. […] […] Tumor growth inhibition was measured 1-2 days after the last day of treatment.

[9] = system: HL60 (human promyelocytic leukemia) cells; assay: HL60 cytotoxicity assay (CellTiter-Glo); assay type: cell-based; details: HL-60, 72 h, cytotoxicity, three days culture, read-out: HL60 IC50
[10] = target: T4, Aurora kinase C (Homo sapiens, UniProt Q9UQB9); details: reported; cited from earlier work
T4 sequence (Q9UQB9 1-309): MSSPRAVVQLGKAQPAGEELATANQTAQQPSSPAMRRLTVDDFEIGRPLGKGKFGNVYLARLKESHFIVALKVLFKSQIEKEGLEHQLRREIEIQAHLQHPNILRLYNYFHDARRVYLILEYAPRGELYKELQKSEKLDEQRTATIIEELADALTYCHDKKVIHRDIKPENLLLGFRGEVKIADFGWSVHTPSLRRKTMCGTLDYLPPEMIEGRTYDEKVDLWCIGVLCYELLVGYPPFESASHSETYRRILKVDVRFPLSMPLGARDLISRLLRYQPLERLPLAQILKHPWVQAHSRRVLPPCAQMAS

## NC(=O)/C(=C1\Nc2ccc(C(=O)N3CCNCC3)cc2N1)c1nccc(C(F)(F)F)n1 [Compound 60A]
[1]
  IC50: 10 nM
[2]
  IC50: 7 nM
[3]
  IC50: 80 nM
[4]
  IC50: 200 nM
[5]
  IC50: 200 nM
[6]
  inhibition of tumor growth compared to vehicle: 37%
[7]
  IC50: 5 nM

## CCN(CC)CC(=O)Nc1ccc2c(c1)N/C(=C(/C(N)=O)c1nccc(C(F)(F)F)n1)N2 [Compound 75A]
[1]
  IC50: 60 nM
[2]
  IC50: 10 nM
[3]
  IC50: 200 nM
[4]
  IC50: 1000 nM
[5]
  IC50: 400 nM
[8]
  inhibition of tumor growth compared to vehicle: 72%
[6]
  inhibition of tumor growth compared to vehicle: 60%
[7]
  IC50: 50 nM

## NC(=O)C(=C1Nc2ccc(C(=O)NCCCN3CCOCC3)cc2S1)c1nccc(C(F)(F)F)n1 (single isomer, unassigned) [Compound 40A, 2-(6-{[3-(4-morpholinyl)propyl]aminocarbonyl}-benzothiazol-2(3H)-ylidene)-2-(4-trifluoromethylpyrimidin-2-yl)acetamide]
[1]
  IC50: 3 nM
[2]
  IC50: 7 nM
[3]
  IC50: 30 nM
[4]
  IC50: 200 nM
[5]
  IC50: 500 nM
[9]
  IC50: 7000 nM
[6]
  inhibition of tumor growth compared to vehicle: 18%
[7]
  IC50: 3 nM

## CCN(CC)CC(=O)N(CC)c1ccc2c(c1)N/C(=C(/C(N)=O)c1nccc(C(F)(F)F)n1)N2 [Compound 139A]
[1]
  IC50: 20 nM
[2]
  IC50: 2 nM
[4]
  IC50: 30 nM
[5]
  IC50: 90 nM
[9]
  IC50: 40 nM
[8]; dissolved at 4 mg/mL in 0.1M sodium acetate pH5, dosing at 40 mg/mL
  tumor inhibition relative to vehicle: 65%
[6]; dissolved at 4 mg/mL in 0.1M sodium acetate pH5
  tumor inhibition relative to vehicle: 46%
[7]
  IC50: 30 nM

## NC(=O)/C(=C1\Nc2ccc(NC(=O)CCCN3CCOCC3)cc2N1)c1nccc(C(F)(F)F)n1 [Compound 85A]
[1]
  IC50: 5 nM
[2]
  IC50: 4 nM
[3]
  IC50: 20 nM
[4]
  IC50: 300 nM
[5]
  IC50: 50 nM
[9]
  IC50: 60 nM
[8]
  inhibition of tumor growth compared to vehicle: 45%
[7]
  IC50: 20 nM

## CCN(CCCN1CCOCC1)C(=O)c1ccc2c(c1)N/C(=C(/C(N)=O)c1nccc(C(F)(F)F)n1)N2 [Compound 41A]
[1]
  IC50: 6 nM
[2]
  IC50: 4 nM
[3]
  IC50: 200 nM
[4]
  IC50: 700 nM
[5]
  IC50: 100 nM
[9]
  IC50: 100 nM
[8]
  inhibition of tumor growth compared to vehicle: 81%
[7]
  IC50: 4 nM

## NC(=O)C(=C1Nc2ccc(OCCn3ccnc3)cc2S1)c1nccc(C(F)(F)F)n1 (single isomer, unassigned) [Compound 117A, 2-{6-[2-(1H-imidazol-1-yl)ethoxy]benzothiazol-2(3H)-ylidene}-2-(4-trifluoromethylpyrimidin-2-yl)acetamide]
[1]
  IC50: 10 nM
[2]
  IC50: 8 nM
[3]
  IC50: 60 nM
[4]
  IC50: 800 nM
[5]
  IC50: 300 nM
[6]
  inhibition of tumor growth compared to vehicle: 42%
[7]
  IC50: 20 nM

## NC(=O)C(=C1Nc2ccc(C(=O)NCCCN3CCOCC3)cc2N1)c1nccc(C(F)(F)F)n1 (single isomer, unassigned) [Compound 39A, 2-(5-{[3-(4-morpholinyl)propyl]aminocarbonyl}-1H-benzimidazol-2(3H)-ylidene)-2-(4-trifluoromethylpyrimidin-2-yl)acetamide]
[1]
  IC50: 10 nM
[2]
  IC50: 5 nM
[3]
  IC50: 60 nM
[4]
  IC50: 300 nM
[5]
  IC50: 900 nM
[9]
  IC50: 500 nM
[8]
  inhibition of tumor growth compared to vehicle: 47%
[6]
  inhibition of tumor growth compared to vehicle: 56%
[7]
  IC50: 7 nM

## CN1CCCC[C@@H]1C(=O)Nc1ccc2c(c1)N/C(=C(/C(N)=O)c1nccc(C(F)(F)F)n1)N2 [Compound 143A]
[1]
  IC50: 4 nM
[2]
  IC50: 6 nM
[3]
  IC50: 80 nM
[4]
  IC50: 300 nM
[5]
  IC50: 200 nM
[9]
  IC50: 300 nM
[8]; dissolved at 10 mg/mL in 0.1M sodium acetate pH5
  tumor inhibition relative to vehicle: 65%
[7]
  IC50: 30 nM

## CN1CCC[C@H]1C(=O)Nc1ccc2c(c1)N/C(=C(/C(N)=O)c1nccc(C(F)(F)F)n1)N2 [Compound 77A]
[1]
  IC50: 8 nM
[2]
  IC50: 7 nM
[3]
  IC50: 90 nM
[4]
  IC50: 200 nM
[5]
  IC50: 100 nM
[9]
  IC50: 300 nM
[8]
  inhibition of tumor growth compared to vehicle: 75%
[7]
  IC50: 9 nM

## NC(=O)/C(=C1\Nc2ccc(CCn3ccnc3)cc2S1)c1nccc(C(F)(F)F)n1 [Compound 95A]
[1]
  IC50: 20 nM
[2]
  IC50: 4 nM
[3]
  IC50: 50 nM
[4]
  IC50: 2000 nM
[5]
  IC50: 50 nM
[9]
  IC50: 2000 nM
[8]
  inhibition of tumor growth compared to vehicle: 59%
[6]
  inhibition of tumor growth compared to vehicle: 61%
[7]
  IC50: 20 nM

## Cc1nc(N)sc1-c1ccnc(Nc2ccc(N3CCOCC3)cc2)n1 [CYC116]
[10]
  IC50: < 100 nM
